Experimental data as given in patent publication US8933040B2, “Selective glycosidase inhibitors and uses thereof” (priority 2010, dated 2015).
Where two headings read alike, the source gives them in different places.

Columns and labels:
human O-GlcNAcase = human O-GlcNAcase (Homo sapiens (Human), UniProt O60502); assay: Fluorescence-based assay for determination of KI values for inhibition of O-GlcNAcase activity; type: biochemical
Procedure: Assay for Determination of KI Values for Inhibition of O-GlcNAcase Activity
Experimental Procedure for Kinetic Analyses:
Enzymatic reactions were carried out in a reaction containing 50 mM NaH2PO4, 100 mM NaCl and 0.1% BSA (pH 7.0) using 2 mM 4-Methylumbelliferyl N-acetyl-β-D-glucosaminide dihydrate (Sigma M2133) dissolved in ddH2O, as a substrate. The amount of purified human O-GlcNAcase enzyme used in the reaction was 0.7 nM. Test compound of varying concentrations was added to the enzyme prior to initiation of the reaction. The reaction was performed at room temperature in a 96-well plate and was initiated with the addition of substrate. […] The slope of product production was determined for each concentration of compound tested and plotted, using standard curve fitting algorithms for sigmoidal dose response curves. The values for a four parameter logistic curve fit of the data were determined.

O-GlcNAcase = O-GlcNAcase (Rattus norvegicus (Rat), UniProt Q8VIJ5); assay: Cell-based ELISA for cellular activity of O-GlcNAcase inhibitors (O-GlcNAcylated protein, RL-2 antibody)
From the text: Assay for Determination of Cellular Activity for Compounds that Inhibit O-GlcNAcase Activity
Inhibition of O-GlcNAcase, which removes O-GlcNAc from cellular proteins, results in an increase in the level of O-GlcNAcylated protein in cells. An increase in O-GlcNAcylated protein can be measured by an antibody, such as RL-2, that binds to O-GlcNAcylated protein. The amount of O-GlcNAcylated protein:RL2 antibody interaction can be measured by enzyme linked immunosorbant assay (ELISA) procedures.
A variety of tissue culture cell lines, expressing endogenous levels of O-GlcNAcase, can be utilized; examples include rat PC-12, and human U-87, or SK—N—SH cells. Rat PC-12 cells were plated in 96-well plates with approximately 10,000 cells/well. Compounds to be tested were dissolved in DMSO, either 2 or 10 mM stock solution, and then diluted with DMSO and water in a two-step process using a Tecan workstation. […] If desired, the total protein concentration of samples was determined using 20 μL of the sample using the BCA method. […]
The values for a four parameter logistic curve fit of the data were determined, with the inflection point of the curve being the potency value for the test compound.

[1] = purified human O-GlcNAcase 0.7 nM, 2 mM 4-Methylumbelliferyl N-acetyl-β-D-glucosaminide, pH 7.0, Cheng-Prusoff, read-out: Fluorescence-based hOGA Ki

Sequence of human O-GlcNAcase (O60502 whole entry): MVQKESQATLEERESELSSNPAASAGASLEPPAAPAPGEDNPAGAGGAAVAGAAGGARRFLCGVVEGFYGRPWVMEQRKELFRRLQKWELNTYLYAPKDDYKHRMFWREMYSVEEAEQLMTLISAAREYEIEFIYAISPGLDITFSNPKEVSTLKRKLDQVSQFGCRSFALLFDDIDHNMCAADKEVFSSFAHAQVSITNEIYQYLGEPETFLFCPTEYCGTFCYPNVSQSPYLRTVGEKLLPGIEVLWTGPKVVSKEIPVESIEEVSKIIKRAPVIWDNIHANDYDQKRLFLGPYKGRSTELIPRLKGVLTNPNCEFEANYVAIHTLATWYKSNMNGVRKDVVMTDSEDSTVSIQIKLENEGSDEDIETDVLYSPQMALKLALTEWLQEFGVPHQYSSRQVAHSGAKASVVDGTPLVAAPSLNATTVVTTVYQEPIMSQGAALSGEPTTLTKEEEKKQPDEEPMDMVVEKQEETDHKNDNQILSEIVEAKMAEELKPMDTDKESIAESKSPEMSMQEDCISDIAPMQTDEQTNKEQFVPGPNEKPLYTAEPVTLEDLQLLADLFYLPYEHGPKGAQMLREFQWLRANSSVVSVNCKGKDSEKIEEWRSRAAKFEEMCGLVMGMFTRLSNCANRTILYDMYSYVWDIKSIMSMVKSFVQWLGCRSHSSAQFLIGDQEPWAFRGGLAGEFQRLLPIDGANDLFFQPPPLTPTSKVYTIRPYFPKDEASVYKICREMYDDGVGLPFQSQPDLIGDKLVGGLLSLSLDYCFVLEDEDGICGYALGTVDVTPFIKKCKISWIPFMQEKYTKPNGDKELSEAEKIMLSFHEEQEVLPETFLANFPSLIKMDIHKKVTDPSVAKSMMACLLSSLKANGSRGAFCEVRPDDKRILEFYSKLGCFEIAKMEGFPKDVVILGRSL
Sequence of O-GlcNAcase (Q8VIJ5 whole entry): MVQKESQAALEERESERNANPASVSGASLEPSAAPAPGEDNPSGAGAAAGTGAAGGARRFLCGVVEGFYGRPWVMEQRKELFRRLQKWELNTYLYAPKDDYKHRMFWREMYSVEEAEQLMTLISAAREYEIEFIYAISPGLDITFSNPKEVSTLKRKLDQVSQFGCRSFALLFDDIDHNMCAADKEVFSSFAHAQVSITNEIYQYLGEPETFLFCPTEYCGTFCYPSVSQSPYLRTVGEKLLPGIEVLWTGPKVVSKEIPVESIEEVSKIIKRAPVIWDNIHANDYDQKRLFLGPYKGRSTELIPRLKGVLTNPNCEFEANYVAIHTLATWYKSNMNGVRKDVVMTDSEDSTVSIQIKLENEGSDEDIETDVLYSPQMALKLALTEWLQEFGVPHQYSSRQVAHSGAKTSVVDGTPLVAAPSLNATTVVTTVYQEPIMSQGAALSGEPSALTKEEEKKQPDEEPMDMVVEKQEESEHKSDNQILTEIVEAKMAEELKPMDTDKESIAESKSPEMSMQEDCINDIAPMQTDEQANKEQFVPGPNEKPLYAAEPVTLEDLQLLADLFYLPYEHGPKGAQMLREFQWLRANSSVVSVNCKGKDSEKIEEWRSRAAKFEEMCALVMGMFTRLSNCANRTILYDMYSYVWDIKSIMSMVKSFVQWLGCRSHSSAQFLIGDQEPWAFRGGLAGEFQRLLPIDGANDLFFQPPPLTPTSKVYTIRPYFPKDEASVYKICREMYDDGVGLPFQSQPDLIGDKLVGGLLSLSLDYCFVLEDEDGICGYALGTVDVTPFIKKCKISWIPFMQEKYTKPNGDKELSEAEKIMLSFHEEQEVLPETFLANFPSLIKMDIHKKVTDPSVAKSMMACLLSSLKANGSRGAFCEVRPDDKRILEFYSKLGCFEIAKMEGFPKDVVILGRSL

With O[C@H]1[C@H](O)[C@@H](CNC2CC2)O[C@@H]2SC(N3CCC3)=N[C@H]12 [Example 16, (3aR,5R,6S,7R,7aR)-2-(azetidin-1-yl)-5-((cyclopropylamino)methyl)-5,6,7,7a-tetrahydro-3aH-pyrano[3,2-d]thiazole-6,7-diol] the Ki (human O-GlcNAcase; [1]) was 101 nM.

Compound OC[C@H]1O[C@@H]2SC(N3CCOCC3)=N[C@@H]2[C@@H](O)[C@@H]1O [Example 14, (3aR,5R,6S,7R,7aR)-5-(hydroxymethyl)-2-morpholino-5,6,7,7a-tetrahydro-3aH-pyrano[3,2-d]thiazole-6,7-diol] has a Ki (human O-GlcNAcase; [1]) of 289 nM.

Work on CN(C)C(=O)OC[C@H]1O[C@@H]2SC(N3CCC3)=N[C@@H]2[C@@H](O)[C@@H]1O [Example 18, ((3aR,5R,6S,7R,7aR)-2-(azetidin-1-yl)-6,7-dihydroxy-5,6,7,7a-tetrahydro-3aH-pyrano[3,2-d]thiazol-5-yl)methyl dimethylcarbamate] yielded a Ki (human O-GlcNAcase; [1]) of 350 nM.

Work on OC[C@H]1O[C@@H]2SC(N3CCCC3)=N[C@@H]2[C@@H](O)[C@@H]1O [Example 7, (3aR,5R,6S,7R,7aR)-5-(hydroxymethyl)-2-(pyrrolidin-1-yl)-5,6,7,7a-tetrahydro-3aH-pyrano[3,2-d]thiazole-6,7-diol] yielded a Ki (human O-GlcNAcase; [1]) of 13 nM and an EC50 (O-GlcNAcase; Rat PC-12 cells, 24 h treatment, increase in O-GlcNAcylated protein detected with RL-2 antibody, read-out: Cell-based ELISA EC50) of 165 nM.

OC[C@H]1O[C@@H]2SC(N3CCC3)=N[C@@H]2[C@@H](O)C1O (stereo in doubt) [Example 1, (3aR,5R,6S,7R,7aR)-2-(azetidin-1-yl)-5-(hydroxymethyl)-5,6,7,7a-tetrahydro-3aH-pyrano[3,2-d]thiazole-6,7-diol] was tested, and the Ki (human O-GlcNAcase) was 3.3 nM and the EC50 (O-GlcNAcase) was 28 nM.

For OC[C@H]1O[C@@H]2SC(N3CC(F)C3)=N[C@@H]2[C@@H](O)[C@@H]1O [Example 3, (3aR,5R,6S,7R,7aR)-2-(3-fluoroazetidin-1-yl)-5-(hydroxymethyl)-5,6,7,7a-tetrahydro-3aH-pyrano[3,2-d]thiazole-6,7-diol], the Ki (human O-GlcNAcase; [1]) was 30 nM.

COC1CN(C2=N[C@@H]3[C@@H](O)[C@H](O)[C@@H](CO)O[C@@H]3S2)C1 [Example 5, (3aR,5R,6S,7R,7aR)-5-(hydroxymethyl)-2-(3-methoxyazetidin-1-yl)-5,6,7,7a-tetrahydro-3aH-pyrano[3,2-d]thiazole-6,7-diol] was tested, and the Ki (human O-GlcNAcase; [1]) was 142 nM.
